Experimental data: ChEMBL document CHEMBL3351762, “The fungal natural product (1S,3S)-austrocortirubin induces DNA damage in HCT116 cells via a mechanism unique from other DNA damaging agents” (Bioorg Med Chem Lett, 2015)
pIC50: −log10 of the molar value. Active and inactive are the calls of the source. The rule behind the calls is not given here.

Experiments:
[1] = Cytotoxicity against human HCT116 cells after 72 hrs by cell counting Kit-8 assay; type: functional, cell-based; conditions: HCT-116, 72 h
[2] = test system: HCT-116; test: Induction of DNA damage in human HCT116 cells at S phase at 15 to 30 uM after 24 hrs by gamma-H2AX-staining based-flow cytometry; type: functional
[3] = test system: HCT-116; test: Induction of apoptosis in human HCT116 cells assessed as early-stage apoptotic cells at 15 uM after 24 to 48 hrs by Annexin V/PI-FITC staining based flow cytometry; type: functional
[4] = Cell cycle arrest in human HCT116 cells assessed as increase in accumulation at S phase at 15 to 30 uM after 24 by flow cytometry; type: functional, cell-based; conditions: HCT-116
[5] = Cell cycle arrest in human HCT116 cells assessed as increase in accumulation at G2/M phase at 15 to 30 uM after 24 by flow cytometry; type: functional, cell-based; conditions: HCT-116
[6] = Cell cycle arrest in human HCT116 cells assessed as cells at M phase at 15 to 30 uM after 24 by flow cytometry; type: functional, cell-based; conditions: HCT-116
[7] = test system: HCT-116; test: Induction of DNA damage in human HCT116 cells at G2/M phase at 15 to 30 uM after 24 hrs by gamma-H2AX-staining based-flow cytometry; type: functional
[8] = Cell cycle arrest in human HCT116 cells assessed as increase in accumulation at G2/M phase at 100 to 200 uM after 24 by flow cytometry; type: functional, cell-based; conditions: HCT-116
[9] = Cell cycle arrest in human HCT116 cells assessed as cells at M phase at 100 to 200 nM after 24 by flow cytometry; conditions: HCT-116
[10] = test system: HCT-116; test: Induction of DNA damage in human HCT116 cells at G0/G1 phase at 100 to 200 nM after 24 hrs by gamma-H2AX-staining based-flow cytometry
[11] = test system: HCT-116; test: Induction of DNA damage in human HCT116 cells at G2/M phase at 100 to 200 uM after 24 hrs by gamma-H2AX-staining based-flow cytometry; type: functional
[12] = test system: HCT-116; test: Induction of DNA damage in human HCT116 cells at S phase at 100 to 200 uM after 24 hrs by gamma-H2AX-staining based-flow cytometry; type: functional
[13] = Cell cycle arrest in human HCT116 cells assessed as decrease in accumulation at S phase at 100 to 200 uM after 24 by flow cytometry; type: functional, cell-based; conditions: HCT-116
[14] = test system: HCT-116; test: Induction of apoptosis in human HCT116 cells assessed as increase in mitosis at 20 uM after 24 by flow cytometry; type: functional
[15] = Cell cycle arrest in human HCT116 cells assessed as increase in accumulation at G2/M phase at 20 uM after 24 by flow cytometry; type: functional, cell-based; conditions: HCT-116
[16] = Cell cycle arrest in human HCT116 cells assessed as increase in accumulation at S phase at 20 uM after 24 by flow cytometry; type: functional, cell-based; conditions: HCT-116

COC1=CC(=O)c2c(O)c3c(c(O)c2C1=O)C[C@@](C)(O)C[C@@H]3O
pIC50 [1]: 4.63

COC1=CC(=O)c2c(O)c3c(c(O)c2C1=O)C[C@](C)(O)C[C@@H]3O
Activity [2]: 90%
Activity [3]: 75%
pIC50 [1]: 5.43
Activity [4]: Active
Activity [5]: Active
Activity [6]: inactive
Activity [7]: 50%

COC1=CC(=O)c2c(O)c3c(c(O)c2C1=O)C[C@](C)(O)CC3
pIC50 [1]: 4.57

C[C@]1(O)Cc2c(O)c3c(c(O)c2[C@@H](O)C1)C(=O)C=C(NCCc1ccccc1)C3=O
pIC50 [1]: 4.80

C[C@]1(O)Cc2c(O)c3c(c(O)c2[C@@H](O)C1)C(=O)C=C(NCCc1ccc(Cl)cc1)C3=O
pIC50 [1]: 5.00

COc1cc(O)c2c(c1O)C(=O)c1cc(C)ccc1C2=O [AUSTROCORTIRUBIN]
pIC50 [1]: < 4.30

COc1cccc2c1C(=O)c1c(O)c3c(c(O)c1C2=O)C[C@@](O)(C(=O)CO)C[C@@H]3O[C@H]1C[C@H](N)[C@H](O)[C@H](C)O1 [DOXORUBICIN]
Activity [8]: Active
Activity [9]: inactive
Activity [10]: inactive
Activity [11]: 50%
pIC50 [1]: 7.70
Activity [12]: 50%
Activity [13]: Active

CC(=O)O[C@H]1C(=O)[C@@]2(C)[C@H]([C@H](OC(=O)c3ccccc3)[C@]3(O)C[C@H](OC(=O)[C@H](O)[C@@H](NC(=O)c4ccccc4)c4ccccc4)C(C)=C1C3(C)C)[C@]1(OC(C)=O)CO[C@@H]1C[C@@H]2O [PACLITAXEL]
fold change (FC) [14]: 3
pIC50 [1]: 8.57
Activity [15]: Active
Activity [16]: Active
